Common to all, as to assay type: cell-based, Human
In test [1] the test system is SUDHL2-R cells (zebutinib-resistant ABC-DLBCL cell line). Briefly: CCK8 cell viability, zebutinib on SUDHL2-R. From the text: (§1) Human ABC-DLBCL cell lines (SUDHL2, U2932 and OCI-LY10) are purchased from American Type Culture Collection (ATCC) cell bank. The BTK inhibitor-resistant ABC-DLBCL-R cell line is constructed according to the drug concentration gradient increment method, and the BTK inhibitor used in the present disclosure is zebutinib. […] All the patients were diagnosed according to the 2016 revision of the WHO classification of lymphoid neoplasms. Before the study, written informed consent was obtained from each patient and healthy volunteer.
(§2) The drug concentration gradient is used to induce zebutinib resistance to BTK inhibitor in ABC-DLBCL cell lines (SUDHL2, U2932 and OCI-LY10). Tumor cells in the logarithmic growth phase are taken, and zebutinib at a starting concentration of 2 micromoles per liter (μmol/L) (about 1/10 of the IC50 of the parental cell line) is added to act for 24 hours (h). […]
(§3) Cell activity is measured using a cell counting kit-8 (CCK-8, Dojindo, Japan). […] The absorbance at 450 nm is measured by ELX808 microplate spectrophotometer (BioTekInstruments, Winooski, VT, USA). Colony formation experiment: cells are inoculated into a 6-well plate with 500 cells per well, three copies in one group, and cultured for 10-14 days to form colonies, followed by […] in formaldehyde and staining with crystal violet, and the visible colonies are counted. […]

The next test deals with OCI-LY10 cells. Briefly: CCK8 cell viability, zebutinib on OCI-LY10. The settings on record: parental ABC-DLBCL cell line OCI-LY10, CCK8 method; read-out: half maximal inhibitory concentration (IC50).
Text: as §1, §2, §3

In the next test the test system is SUDHL2 cells. In words: CCK8 cell viability, zebutinib on SUDHL2. The following applies: parental ABC-DLBCL cell line SUDHL2, CCK8 method; read-out: half maximal inhibitory concentration (IC50).
Text: as §1, §2, §3
A general note: Formazan colour is commonly taken as a measure of viable cells.

In test [2] the test system is OCI-LY10-R cells (zebutinib-resistant ABC-DLBCL cell line). In words: CCK8 cell viability, zebutinib on OCI-LY10-R.
Text: as §1, §2, §3

Test [3] has as its system U2932-R cells (zebutinib-resistant ABC-DLBCL cell line). In words: CCK8 cell viability, zebutinib on U2932-R.
Text: as §1, §2, §3

For a further test, the system named is U2932 cells. In words: CCK8 cell viability, zebutinib on U2932. The settings on record: parental ABC-DLBCL cell line U2932, CCK8 method; read-out: half maximal inhibitory concentration (IC50).
Text: as §1, §2, §3

Take `C=CC(=O)N1CCC([C@@H]2CCNc3c(C(N)=O)c(-c4ccc(Oc5ccccc5)cc4)nn32)CC1` [zebutinib]: the “resistance index (RI)” value in test [1] (RI=IC50 of drug-resistant cell line/IC50 of parental cell line, SUDHL2-R vs SUDHL2) stood at 5.28; in test [2] (RI=IC50 of drug-resistant cell line/IC50 of parental cell line, OCI-LY10-R vs OCI-LY10), 5.23; in test [3] (RI=IC50 of drug-resistant cell line/IC50 of parental cell line, U2932-R vs U2932) it was 5.14. The IC50 was 90.3 µM in test [1] (drug-resistant cell line SUDHL2-R, CCK8 method, read-out: half maximal inhibitory concentration (IC50)); 22.5 µM in the test with OCI-LY10 cells; 17.1 µM with SUDHL2 cells; 118 µM in test [2] (drug-resistant cell line OCI-LY10-R, CCK8 method, read-out: half maximal inhibitory concentration (IC50)); 144 µM in test [3] (drug-resistant cell line U2932-R, CCK8 method, read-out: half maximal inhibitory concentration (IC50)); 28 µM in the test with U2932 cells.

(Values after patent publication US12297434B1, “Biomarker for predicting drug resistance of bruton's tyrosine kinase inhibitors and application thereof” (Beijing Friendship Hospital, Capital Medical University, priority 2024, dated 2025).)
